Results on 33 compounds are retold here after patent US20260315434A1, “USE OF GUAIACOL SESQUITERPENE LACTONE DERIVATIVES” (NANJING UNIVERSITY OF CHINESE MEDICINE, priority 2023, published 2026).

In general, solubility refers to how much of the substance goes into solution per volume. Low values mean little dissolved substance, high ones much dissolved substance.

Values after ≈ are worked out from the molar mass of the structure shown.

Data set [1] can be described thus: Water solubility testing of compounds (HPLC). Conditions: deionized water, 37 °C.
Data set [2] in a line: Conversion (release) of prodrug salts to parent compound in HEPES buffer pH 7.4. In kind it is in vitro ADME. The note with it: hepes buffer, pH 7.4, HEPES pH 7.4, 37 °C, read-out: Release rate (conversion to Compound 1). The protocol: (§1) Pharmaceutically acceptable salts of guaiane-type sesquiterpene lactone derivatives were selected and evaluated for their conversion rates to Compound 1 and Compound 83 in plasma and HEPES buffer, with results shown in Tables 2-1, 2-2, 3-1, and 3-2.
Experimental Method: Preparation of HEPES 7.4 Solution: Dissolve 1.6 g NaCl, 0.074 g KCl, 0.027 g Na2HPO4, 0.2 g glucose, and 1 g 4-(2-Hydroxyethyl)piperazine-1-ethanesulfonic acid (HEPES) solution in 90 mL distilled water. Adjust the pH to 7.4 using 0.5 M NaOH, then dilute to a final volume 100 mL with distilled water.
(§2) Sample Analysis: Dissolve 0.6 mg of the compound in 250 μL of deionized water separately. Add 250 μL of mouse serum or HEPES 7.4 solution to the sample, incubate at a constant temperature of 37° C., and collect samples at different time points. Pipette 20 μL of the sample to an EP tube, add 60 μL of methanol, vortex to mix thoroughly, and centrifuge at 12,000 rpm at 4° C. for 10 min. At 1 h, 2 h, 4 h, 8 h, and 12 h respectively, collect the supernatant for HPLC analysis. Inject 10 μL of sample and record the corresponding peak areas. Chromatographic conditions: Hanbang C18 column (4.6×250 mm, 5 μm); mobile phase: acetonitrile: […] ammonium formate solution=60:40; flow rate 1.0 mL/min; detection wavelength 210 nm; column temperature 30° C.

A short description of data set [3]: Conversion (release) of prodrug salts to parent compound in mouse plasma. In kind it is in vitro ADME. Conditions: mouse, plasma, 37 °C, read-out: Release rate (conversion to Compound 1). As for the experimental part:
as §1
Plasma Preparation: Collect mouse plasma into an EP tube pre-loaded with sodium heparin, centrifuge at 8000 rpm for 10 minutes at 4° C., and then collect the supernatant.
as §2

In a further data set the test system is T cells / MDSCs. Put plainly: Promotion of T cell proliferation in a co-culture model of MDSCs and T cells. In kind it is cell-based, mouse. The note with it: for activation at 1 µM: Mus musculus, T-cell, 12 h, read-out: T-cell proliferation rate (%), 1 μM, MDSCs treated 12 hours, co-culture of MDSCs and T cells, compared to the control group. As for the experimental part:
Under sterile conditions, the tibia was removed, both ends of the bone were cut, and bone marrow was repeatedly flushed into a 15 mL centrifuge tube using a 1 mL syringe filled with culture medium. Centrifuge at 1600 rpm for 5 min to collect bone marrow cells. […] The spleen cell suspension was then transferred into a 15 mL centrifuge tube. Centrifuge at 1600 rpm for 5 min to collect T cells. Wash twice with 1×PBS. Resuspend the centrifuged T cells in 1 mL PBS and add 1 mL of 10 μM CFDA-SE solution. Incubate at room temperature for 8 min. […] After drug administration, collect MDSC cells into centrifuge tubes. Centrifuge at 1600 rpm for 5 min, remove supernatant, resuspend in 1 mL fresh medium, and plate. Add 1 mL stimulated activated T cells (1:1 ratio) for 48 h co-culture. After incubation, collect cells into centrifuge tubes, wash twice with PBS, and incubate with Fc antibody at room temperature in the dark for 10 min. Add CD3-labeled flow cytometry antibody and incubate at 4° C. in the dark for 30 min. After incubation, wash cells with PBS, resuspend in 300 μL PBS, and analyze by flow cytometry.

`CC(C)N(C[C@@H]1C(=O)O[C@H]2[C@H]1CC[C@@]1(C)C[C@]13CC[C@@](C)(O)[C@H]23)C(C)C` [Compound 12] had a Water-solubility in data set [1] of 0.802 mg/mL.
Turning to `C[C@@]12CC[C@@H]3[C@H](OC(=O)[C@H]3CN3CCC3)[C@@H]3[C@]1(CC[C@@]3(C)O)C2` [Compound 14], the Water-solubility in data set [1] amounted to 0.460 mg/mL.
The same measure, in the same setting: to `C[C@@]12CC[C@@H]3[C@H](OC(=O)[C@H]3CN3CCC(N4CCCCC4)CC3)[C@@H]3[C@]1(CC[C@@]3(C)O)C2` [Compound 16] belongs 0.285 mg/mL.
In the case of `C[C@@]12CC[C@@H]3[C@H](OC(=O)[C@H]3CN3CCC(N4CCOCC4)CC3)[C@@H]3[C@]1(CC[C@@]3(C)O)C2` [Compound 17], in data set [1], the Water-solubility was 0.942 mg/mL.
For the compound `C[C@@]12CC[C@@H]3[C@H](OC(=O)[C@H]3CN3CCCCC3)[C@@H]3[C@]1(CC[C@@]3(C)O)C2` [Compound 24], in data set [2], the degraded at 1 h is 6.8%, the degraded at 2 h is 15.1%, the degraded at 4 h was determined as 26.7% and the degraded at 8 h turned out to be 42.8%. In addition, the degraded at 12 h in data set [2] was 54%. Also, in data set [3], the metabolised at 1 h was 7.7%, the metabolised at 2 h was found to be 17.1%, the metabolised at 4 h stood at 27.7% and the metabolised at 8 h was 47.8%. Also, the metabolised at 12 h in data set [3] turned out to be 57.9%. In data set [1], this compound showed a Water-solubility of 300.5 mg/mL.
As to `C[C@@]12CC[C@@H]3[C@H](OC(=O)[C@H]3CN3CCOCC3)[C@@H]3[C@]1(CC[C@@]3(C)O)C2` [Compound 25], in data set [2], the degraded at 1 h was 6.8%, the degraded at 2 h amounted to 14.1%, the degraded at 4 h was found to be 26.1% and the degraded at 8 h worked out at 42.8%. For the same compound, in data set [2], the degraded at 12 h came out at 51.8%. In data set [3], the metabolised at 1 h turned out to be 6.8%, the metabolised at 2 h is 14.1%, the metabolised at 4 h is 25.7% and the metabolised at 8 h came to 43.8%. For the same compound, the metabolised at 12 h in data set [3] worked out at 51.8%. Besides, the concentration in solution in data set [1] (water, Water-solubility) (solubility) was 342 mg/mL (≈ 979 mM).
For `CCCN(CCC)C[C@@H]1C(=O)O[C@H]2[C@H]1CC[C@@]1(C)C[C@]13CC[C@@](C)(O)[C@H]23` [Compound 29], in data set [2], the degraded at 1 h turned out to be 6.8%, the degraded at 2 h came out at 14.2%, the degraded at 4 h turned out to be 24.6% and the degraded at 8 h amounted to 40.2%. In addition, the degraded at 12 h in data set [2] was 49.8%. Further, in data set [3], the metabolised at 1 h was 6.8%, the metabolised at 2 h stood at 14.2%, the metabolised at 4 h was determined as 24.6% and the metabolised at 8 h turned out to be 40.2%. Further, the metabolised at 12 h in data set [3] was found to be 49%. In data set [1], this compound displayed a Water-solubility of 289.5 mg/mL.
Regarding `C=C1C(=O)O[C@H]2[C@H]1CCC(C)=C1CC[C@@](C)(OC(=O)NC3CC3)[C@@H]12` [Compound 70], in the data set with T cells / MDSCs, the activation at 1 µM was 0 to 20%.
As for `C=C1C(=O)O[C@H]2[C@H]1CCC(C)=C1CC[C@@](C)(OC(=O)NCCO)[C@@H]12` [Compound 71], in the data set with T cells / MDSCs, the activation at 1 µM is above 40%.
Same read-out and setting: then `C=C1C(=O)O[C@H]2[C@H]1CCC(C)=C1CC[C@@](C)(OC(=O)NCCCO)[C@@H]12` [Compound 72], with 20 to 40%; and `C=C1C(=O)O[C@H]2[C@H]1CCC(C)=C1CC[C@@](C)(OC(=O)NCCCCCO)[C@@H]12` [Compound 73], with 20 to 40%.
Same read-out and setting: then `C=C1C(=O)O[C@H]2[C@H]1CCC(C)=C1CC[C@@](C)(OC(=O)NCCOC)[C@@H]12` [Compound 74], with above 40%; and `C=C1C(=O)O[C@H]2[C@H]1CCC(C)=C1CC[C@@](C)(OC(=O)NCCCOC)[C@@H]12` [Compound 75], with 20 to 40%; and `C=C1C(=O)O[C@H]2[C@H]1CCC(C)=C1CC[C@@](C)(OC(=O)NCCOCCO)[C@@H]12` [Compound 76], with 20 to 40%.
As for `C=C1C(=O)O[C@H]2[C@H]1CCC(C)=C1CC[C@@](C)(OC(=O)NCCN(C)C)[C@@H]12` [Compound 77], in the data set on T cells / MDSCs, the activation at 1 µM lay within 0 to 20%.
Same read-out and setting: then `C=C1C(=O)O[C@H]2[C@H]1CCC(C)=C1CC[C@@](C)(OC(=O)NCc3ccccc3)[C@@H]12` [Compound 79], with 20 to 40%; and `C=C1C(=O)O[C@H]2[C@H]1CCC(C)=C1CC[C@@](C)(OC(=O)N(C)C)[C@@H]12` [Compound 80], with 20 to 40%.
`C=C1C(=O)O[C@H]2[C@H]1CCC(C)=C1CC[C@@](C)(OC(=O)N(CC)CC)[C@@H]12` [Compound 81]: the activation at 1 µM in the data set on T cells / MDSCs is 20 to 40%.
For the compound `C=C1C(=O)O[C@H]2[C@H]1CCC(C)=C1CC[C@@](C)(OC(=O)N3CCC(C)CC3)[C@@H]12` [Compound 84], the activation at 1 µM in the data set with T cells / MDSCs was 20 to 40%.
Same read-out and setting: then `C=C1C(=O)O[C@H]2[C@H]1CCC(C)=C1CC[C@@](C)(OC(=O)N3CCN(C)CC3)[C@@H]12` [Compound 85], with 0 to 20%; and `C=C1C(=O)O[C@H]2[C@H]1CCC(C)=C1CC[C@@](C)(OC(=O)N3CCN(CC)CC3)[C@@H]12` [Compound 86], with 20 to 40%.
On the same count and under the same terms, then `C=C1C(=O)O[C@H]2[C@H]1CCC(C)=C1CC[C@@](C)(OC(=O)N3CCOCC3)[C@@H]12` [Compound 87], with above 40%.
On the same count and under the same terms, then `C=C1C(=O)O[C@H]2[C@H]1CCC(C)=C1CC[C@@](C)(OC(=O)NCC(C)C)[C@@H]12` [Compound 88], with 20 to 40%.
With `C=C1C(=O)O[C@H]2[C@H]1CCC(C)=C1CC[C@@](C)(OC(=O)NCC(F)F)[C@@H]12` [Compound 89], the activation at 1 µM with T cells / MDSCs fell in the range of 20 to 40%.
Still for that read-out and setting: then `C=C1C(=O)O[C@H]2[C@H]1CCC(C)=C1CC[C@@](C)(OC(=O)N(C)CCC)[C@@H]12` [Compound 90], with 20 to 40%.
Still for that read-out and setting: to `C=C1C(=O)O[C@H]2[C@H]1CCC(C)=C1CC[C@@](C)(OC(=O)N(CC)CCC)[C@@H]12` [Compound 91] belongs 20 to 40%.
Still for that read-out and setting: to `C=C1C(=O)O[C@H]2[C@H]1CCC(C)=C1CC[C@@](C)(OC(=O)NCCCN3CCOCC3)[C@@H]12` [Compound 92] belongs 20 to 40%; to `C=C1C(=O)O[C@H]2[C@H]1CCC(C)=C1CC[C@@](C)(OC(=O)NCCCN3CCN(C)CC3)[C@@H]12` [Compound 93], 20 to 40%; to `C=C1C(=O)O[C@H]2[C@H]1CCC(C)=C1CC[C@@](C)(OC(=O)N3CCC(N4CCOCC4)CC3)[C@@H]12` [Compound 94], 20 to 40%.
Consider `C=C1C(=O)O[C@H]2[C@H]1CCC(C)=C1CC[C@@](C)(OC(=O)NCCN3CCN(C)CC3)[C@@H]12` [Compound 95], for which the activation at 1 µM with T cells / MDSCs fell in the range of 20 to 40%.
The same measure, in the same setting: to `CC1=C2CC[C@@](C)(OC(=O)N3CCCCC3)[C@@H]2[C@H]2OC(=O)[C@@H](CN3CCCC3)[C@@H]2CC1` [Compound 96] belongs 0 to 20%; to `CC1=C2CC[C@@](C)(OC(=O)N3CCCCC3)[C@@H]2[C@H]2OC(=O)[C@@H](CN(C)C)[C@@H]2CC1` [Compound 97], 0 to 20%.
Consider `CC1=C2CC[C@@](C)(OC(=O)N3CCCC3)[C@@H]2[C@H]2OC(=O)C(CN3CCCC3)[C@@H]2CC1` (stereo partly drawn) [compound 104], for which the “T-cell proliferation rate (%)” value in the data set with T cells / MDSCs (1 μM, MDSCs treated 12 hours, co-culture of MDSCs and T cells, compared to the control group) is reported as “+ (T-cell proliferation rate within the 0-20% range compared to the control group)”.
